These results are taken from paper PMC6302903, “Protein and Chemical Determinants of BL-1249 Action and Selectivity for K2P Channels” (ACS Chemical Neuroscience, 2018).

The target in one assay is T1, TREK-1/AAK M4-C (Mus musculus, UniProt O88454+P97438).
T1 construct: Y272 (TREK-1/AAK M4-C); expressed in transfected cells; host or cells: Xenopus laevis oocytes, mRNA injected; chimera built by Gibson assembly
T1 sequence (P97438+O88454 with tags, fused parts or gaps P97438:V273L/P97438:V280F/P97438:A287S/P97438:S290T/P97438:M291T/P97438:D294N): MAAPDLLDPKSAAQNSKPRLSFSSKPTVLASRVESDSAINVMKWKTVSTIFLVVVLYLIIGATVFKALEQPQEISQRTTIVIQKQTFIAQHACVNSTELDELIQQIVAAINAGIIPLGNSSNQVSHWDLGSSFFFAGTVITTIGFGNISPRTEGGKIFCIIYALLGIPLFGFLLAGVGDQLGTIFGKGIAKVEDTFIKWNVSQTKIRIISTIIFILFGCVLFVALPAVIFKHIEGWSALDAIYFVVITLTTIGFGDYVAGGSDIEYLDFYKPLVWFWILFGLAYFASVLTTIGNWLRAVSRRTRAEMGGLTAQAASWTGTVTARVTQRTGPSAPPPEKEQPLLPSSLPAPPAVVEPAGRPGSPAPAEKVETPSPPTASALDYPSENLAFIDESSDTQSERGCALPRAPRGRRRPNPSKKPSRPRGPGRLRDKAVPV
Put plainly: TEVC of chimera TREK-1/AAK M4-C. Type of assay: cell-based. The settings on record: Xenopus oocytes.

Another assay concerns the target T2, K2P2.1(TREK-1) (Mus musculus, UniProt P97438).
T2 sequence (P97438 1-411 isoform P97438-2): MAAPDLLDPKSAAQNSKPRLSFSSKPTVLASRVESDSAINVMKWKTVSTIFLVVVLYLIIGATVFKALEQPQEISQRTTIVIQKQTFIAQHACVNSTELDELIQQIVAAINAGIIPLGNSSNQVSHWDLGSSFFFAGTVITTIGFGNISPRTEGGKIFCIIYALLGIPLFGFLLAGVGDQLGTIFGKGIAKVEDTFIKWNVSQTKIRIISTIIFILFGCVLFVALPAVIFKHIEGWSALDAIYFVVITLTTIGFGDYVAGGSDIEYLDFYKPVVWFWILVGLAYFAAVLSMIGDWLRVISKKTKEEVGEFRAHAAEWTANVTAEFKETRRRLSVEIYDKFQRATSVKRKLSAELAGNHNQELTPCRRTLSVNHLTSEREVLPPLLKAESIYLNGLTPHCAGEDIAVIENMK
Put plainly: TEVC of K2P2.1(TREK-1) in Xenopus oocytes. Type of assay: cell-based. Further details: expressed in transfected cells; host or cells: Xenopus laevis oocytes injected with mRNA made from pGEMHE/pMO. From the text:
Constructs for murine K2P channels, including K2P2.1(TREK-1) (Gene ID 16526), K2P10.1(TREK-2) (Gene ID 72258), K2P4.1(TRAAK) (Gene ID 16528), K2P5.1(TASK-2) (Gene ID 16529), K2P3.1(TASK-1) (Gene ID 16527), K2P9.1(TASK-3) (Gene ID 223604), and K2P18.1(TRESK) (Gene ID 332396) in pGEMHE/pMO, were used for Xenopus oocyte experiments as previously described.[10],[26] Murine K2P2.1(TREK-1) (Gene ID 16526) was expressed in HEK-293 cells using a pIRES-EGFP construct as previously described.[26] Murine K2P13.1(THIK-1) (Gene ID 217826) and K2P1.1(TWIK-1) (Gene ID 16525) were cloned into pGEMHE/pMO for use in Xenopus oocytes. Chimeras were designed using EMBOSS Needle pairwise sequence alignment tool[58] to match homologous helices in K2P2.1(TREK-1) and K2P4.1(TRAAK) and were assembled using the Gibson assembly method.[59] Chimera boundaries are Thr152 (TREK-1/AAK M2-C), Trp199 (TREK-1/AAK M3-C), Y272 (TREK-1/AAK M4-C), Thr114 (TRAAK/EK-1 M2-C), Trp161 (TRAAK/EK-1 M3-C), and Tyr234 K2P4.1(TRAAK). All sequences were verified using DNA sequencing.
Xenopus laevis oocytes were harvested in accordance with UCSF IACUC protocol AN129690 and digested in calcium-free ND-96 (96 mM NaCl, 2 mM KCl, 3.8 mM MgCl2) immediately following harvest, as previously described.[6],[10] Digested oocytes were maintained in standard ND96 (96 mM NaCl, 2 mM KCl, 1.8 mM CaCl2, 2 mM MgCl2) with antibiotics (100 units mL^–1 penicillin, 100 μg mL^–1 streptomycin, 50 μg mL^–1 gentimycin). Defolliculated stage V–VI oocytes were injected with 0.2–6.0 ng of mRNA in 50 nL, and currents were recorded 24–48 h after injection. mRNA was synthesized from plasmid DNA using mMessage mMachine Kit (T7 promoter, Ambion, Life Technologies) and purified using RNEasy Kit (Qiagen). Injected oocytes were impaled with two standard microelectrodes (0.2–1.0 MΩ) filled with 3 M KCl and subjected to constant perfusion of standard ND96 during recording. Currents were amplified using the GeneClamp 500B (MDS Analytical Technologies) amplifier controlled by the pClamp software (Molecular Devices). Data were digitized at 1 kHz using Digidata 1332A (MDS Analytical Technologies). For all experiments with small molecules, basal currents were evoked using 1 s long ramps from −150 to +50 mV under constant perfusion of ND96. Once stabilized basal currents were recorded, compounds were perfused at various concentrations in standard ND96 and currents were allowed to increase to stabilization before recording final current. Fold activation upon compound application is expressed as I/I0 (0 mV), derived from the current at 0 mV in the presence of compound divided by the basal current at 0 mV in standard ND96 without compound. Data were analyzed and plotted using Graphpad Prism Version 5 (GraphPad Software, San Diego California USA, www.graphpad.com). […] In the case of BL-1249-acid EC50 estimation, upper bound of I/I0 was set to 20 to account for the strong stimulation of BL-1249-acid.

For `c1ccc(-c2nnn[nH]2)c(Nc2cccc3c2CCCC3)c1` [BL-1249, (5,6,7,8-tetrahydro-naphthalen-1-yl)-[2-(1H-tetrazol-5-yl)-phenyl]-amine], the EC50 (as a rule, the midpoint of the concentration-response curve) at TREK-1/AAK M4-C worked out at 19 ± 3 µM; at K2P2.1(TREK-1) (extracellular application, fold activation I/I0 at 0 mV), 5.5 ± 1.2 µM. The “K2P2.1(TREK-1) current response” value on K2P2.1(TREK-1) (extracellular application of 10 μM) is given as “clear activation responses”.
At TREK-1/AAK M4-C, `CS(=O)(=O)Nc1ccc(C(=O)NCc2ccc(Cl)cc2Cl)cc1` [ML335] returned an EC50 of 2 ± 0.6 µM. Besides, on K2P2.1(TREK-1) (dose-response), the “effect on K2P2.1(TREK-1) current (in words)” value is “robustly responded”.
